# Data reported in patent publication US5578496A, “Detection of autoantibodies associated with the disease myasthenia gravis” (Board of Regents, Baylor College of Medicine, priority 1994, dated 1996).
# *1 amine or outer side, *2 acyl side, *3 side chain or, on linkers, in order; H or OH if unused. Where a SMILES comes first, the peptide text is derived from it. Bridges are numbered along the chain shown (N, C = ends). Where no end group is shown, it is not given here. mPEG = monomethoxypolyethylene glycol; Suc = O=C(CCC(=O)[*:2])[*:1]
# Experiments:
# [1] = system: peptide α125-148; experiment: Radioimmunoassay of anti-AChR antisera from pretreated mice: antibody binding to peptide α125-148; format: in vivo, C57/BL6 mice; details: for antibody binding to peptide α125-148, mean net cpm ± standard deviation: anti-AChR antisera of individual mice, day 37 bleeds; for antibody binding to peptide α125-148, pooled antisera in serial dilutions: pooled serum of each group, various dilutions; for antibodies bound to peptide α125-148 in anti-AChR antisera: pretreatment prior to immunization with Torpedo AChR
# Protocol: (§1) Six weeks old C57/BL6 mice were purchased from Charles River Breeding Laboratories (Wilmington, Mass.). Preimmune sera were obtained from the mice for use as controls in subsequent antibody binding assays. After 2-weeks rest, the mice were divided into three groups which received, at eleven, seven and three days before immunization with AChR, an intraperitoneal injection (5 μg in 25 μl of PBS [0.15M NaCl in 0.01M sodium phosphate buffer, pH 7.2]) of either the mPEG-(α125-148) conjugate (Group 1), mPEG-nonsense peptide conjugate (Group 2) or unaltered free peptide α125-148 (Group 3) (FIG. 5). Then, on day 0, the mice were immunized subcutaneously in one hind footpad and intramuscularly in the same side shoulder with 20 μg of Torpedo AChR in 100 μl emulsion containing equal volumes of complete Freund's adjuvant and PBS. Thirty days later, the mice were immunized with a similar dose of the receptor in the opposite footpad and shoulder. On the 37th day, test bleeds were obtained from the mice for determination of the antibody titers. Electrophysiological studies were performed on the 38th and 39th days. Finally, the mice were sacrificed on the 40th day and lymph node cells were obtained for T cell studies.
# One mg of the synthetic peptide was dissolved in 50 μl dimethylformamide and then diluted with PBS to 25 μg/ml. A solution of Torpedo AChR in PBS was prepared to contain 2.5 μg/ml. Aliquots (50 μl/well) of the peptide or AChR solutions were added to a 96-well microtiter plate (Falcon Micro Test III flexible assay plate, Becton Dickinson, Oxcard, Calif.) and the plates were incubated at room temperature overnight. After washing 3 times with PBS, the plates were blocked with 0.25% bovine serum albumin (BSA [bovine serum albumin]) in PBS (50 μl/well) at 37° C. for 90 minutes. The plates were washed again 5 times with PBS and to each well was added 50 μl of the serum from AChR-immunized mice, pre-diluted with PBS containing 0.10% BSA, and the plates were covered and allowed to stand at room temperature overnight. After 5 washes with PBS, 50 μl of rabbit IgG antibodies (2.5 μg/ml) against mouse IgG and IgM (Accurate Chemical Scientific Corporation, Westbury, N.Y.) was added to each well and the plates were incubated at 37° C. for 3 hours. The plates were then washed 5 times with PBS and ^125 I-labeled protein A (2×10^5cpm in 50 μl of PBS-0.1% BSA) was added to each well. The plates were incubated for 3 hours at room temperature, after which they were washed and the wells were cut out and counted for bound radioactivity. Pre-immune serum samples, obtained from the mice prior to any experimental treatments, were used as controls to correct for non-specific binding.
# [2] = system: experimental autoimmune myasthenia gravis (EAMG); experiment: Electromyography (repetitive nerve stimulation) for electrophysiological EAMG after immunization with Torpedo AChR; format: in vivo, C57/BL6 mice; details: for mean amplitude change of muscle action potentials / mice showing a decremental response greater than 10%: 5 μg i.p. at 11, 7 and 3 days before immunization with Torpedo AChR, EMG on days 38-39
# Protocol: Six weeks old C57/BL6 mice were purchased from Charles River Breeding Laboratories (Wilmington, Mass.). Preimmune sera were obtained from the mice for use as controls in subsequent antibody binding assays. […] Then, on day 0, the mice were immunized subcutaneously in one hind footpad and intramuscularly in the same side shoulder with 20 μg of Torpedo AChR in 100 μl emulsion containing equal volumes of complete Freund's adjuvant and PBS. Thirty days later, the mice were immunized with a similar dose of the receptor in the opposite footpad and shoulder. On the 37th day, test bleeds were obtained from the mice for determination of the antibody titers. Electrophysiological studies were performed on the 38th and 39th days. Finally, the mice were sacrificed on the 40th day and lymph node cells were obtained for T cell studies. To document the electrophysiological evidence of EAMG, amplitudes of serial muscle action potentials were measured by electromyography (EMG) during the repetitive stimulation of the nerve in immunized mice, using the Mystro EMG system (TECA Corporation). A pair of wire electrodes were surgically implanted, encircling the sciatic nerve, two days before EMG. The nerve was stimulated through the implanted electrodes by 3 Hz trains of supramaximal electric current with a duration of 200 microseconds. The corresponding muscle action potentials were recorded with an electrode subcutaneously inserted over the gastrocnemius muscle. A reference electrode was placed at the ankle. Ether inhalation was used during the surgical and recording procedures. […] Students' t-test was used to analyze the differences of amplitude changes between the two groups. A typical myasthenic response of a greater than 10% decrement was considered to constitute an electrophysiological evidence of EAMG. The frequency of electrophysiological EAMG was calculated in each group and analyzed by chi-square test.
# [3] = system: whole Torpedo AChR; experiment: Radioimmunoassay of anti-AChR antisera from pretreated mice: antibody binding to whole AChR; format: in vivo, C57/BL6 mice; details: Group 1 compared to control groups; P>0.5
# Protocol: as §1, with “Finally, the mice were sacrificed on the 40th day and lymph node cells were obtained for T cell studies.” left out
# (§2) One mg of the synthetic peptide was dissolved in 50 μl dimethylformamide and then diluted with PBS to 25 μg/ml. […] The plates were incubated for 3 hours at room temperature, after which they were washed and the wells were cut out and counted for bound radioactivity. […]
# [4] = system: peptide α45-60; experiment: Radioimmunoassay of anti-AChR antisera from pretreated mice: antibody binding to peptide α45-60; format: in vivo, C57/BL6 mice; details: Group 1 compared to control groups; P>0.1-0.5
# Protocol: as §1, with “Finally, the mice were sacrificed on the 40th day and lymph node cells were obtained for T cell studies.” left out
# as §2
# [5] = system: lymph node cells (LNC); experiment: T cell proliferation assay of lymph node cells from AChR-primed mice; format: cell-based, C57/BL6 mice; details: LNC challenged with overlapping Torpedo AChR α chain peptides, α125-148 and AChR; compared with mPEG-Nonsense peptide group
# Protocol: as §1, with “Thirty days later, the mice were immunized with a similar dose of the receptor in the opposite footpad and shoulder. On the 37th day, test bleeds were obtained from the mice for determination of the antibody titers. Electrophysiological studies were performed on the 38th and 39th days. Finally, the mice were sacrificed on the 40th day and lymph node cells were obtained for T cell studies.” left out
# Lymph node cells (LNC) were harvested from the AChR-primed mice of each group ten or eleven days after the last AChR immunization. […] The number of viable cells was determined by vital staining with fluorescein diacetage. […] After incubation for 3 days at 37° C. in a humidified air/CO2 (19:1) atmosphere, the cultures were pulsed (18 hr) with 1 μCi/well [^3 H]-thymidine (Research Products International, Mount Prospect, Ill.) and then harvested on to glass microfiber filters (Whatman, Clinton, N.J.) for counting of radioactivity by liquid scintillation.
# [6] = system: peptide α182-198; experiment: Radioimmunoassay of anti-AChR antisera from pretreated mice: antibody binding to peptide α182-198; format: in vivo, C57/BL6 mice; details: Group 1 compared to control groups; P>0.1-0.5
# Protocol: as §1, with “Finally, the mice were sacrificed on the 40th day and lymph node cells were obtained for T cell studies.” left out
# as §2
Compound,"antibody binding to peptide α125-148, mean net cpm ± standard deviation [1]","antibody binding to peptide α125-148, pooled antisera in serial dilutions [1]",antibodies bound to peptide α125-148 in anti-AChR antisera [1],mean amplitude change of muscle action potentials [2],mice showing a decremental response greater than 10% [2],antibodies against whole receptor [3],antibodies against peptide α45-60 [4],T cell proliferation profiles [5],"effect on development of electrophysiological EAMG ([2]; prior administration, then immunization with AChR)",antibodies against peptide α182-198 [6]
CC[C@H](C)[C@H](NC(=O)CNC(=O)[C@H](CC(C)C)NC(=O)[C@H](CCCCN)NC(=O)[C@H](CCSC)NC(=O)[C@@H](NC(=O)[C@@H]1CSSC[C@H](NC(=O)[C@H](Cc2ccc(O)cc2)NC(=O)[C@H](CO)NC(=O)[C@@H](N)CCCCN)C(=O)N[C@@H](CCC(=O)O)C(=O)N[C@@H]([C@@H](C)CC)C(=O)N[C@@H]([C@@H](C)CC)C(=O)N[C@@H](C(C)C)C(=O)N[C@@H]([C@@H](C)O)C(=O)N[C@@H](Cc2c[nH]cn2)C(=O)N[C@@H](Cc2ccccc2)C(=O)N2CCC[C@H]2C(=O)N[C@@H](Cc2ccccc2)C(=O)N[C@@H](CC(=O)O)C(=O)N[C@@H](CCC(N)=O)C(=O)N[C@@H](CCC(N)=O)C(=O)N[C@@H](CC(N)=O)C(=O)N1)[C@@H](C)O)C(=O)O [α125-148] (H-KSYCEIIVTHFPFDQQNCTMKLGI-OH; disulfide 4-18),3626+2214 cpm,consistently greater than the other two controls,no decrease,-15.9%,56%,–,–,–,–,–
"mPEG-(α125-148): monomethoxypolyethylene glycol coupled via succinyl to the N-terminal α-NH2 of Torpedo AChR peptide α125-148 (Group 1) ({mPEG-Suc}-KSYCEIIVTHFPFDQQNCTMKLGI; disulfide 4-18 (inferred); UniProt P02710 149-172, looked up, fragment)",1414±1801 cpm,consistently lower amounts of antibody binding,significantly decreased,-5.4%,20%,no significant suppression,no significant suppression,did not show meaningful differences,suppresses development of electrophysiological EAMG but the suppression was incomplete,no significant suppression
